The record followed here is patent US12221436B2, “Anthranilamides, their use as insecticide and processes for preparing the same” (PI INDUSTRIES LTD., priority 2018, dated 2025).

Common to all, as to format: in vivo
One experiment deals with Myzus persicae. As to the kind of experiment: Example E: Myzus persicae, leaf dip method (capsicum leaves). The following applies: foliar, third instar nymphs, 72 h after release, dead and moribund combined, read-out: percent mortality. On the procedure:
(§1) Test solutions were prepared according to the procedure described herein below (500 PPM):
(§2) • 1. Eppendorf Vortex mixer (ThermoMixer C) and 1.5 mL Eppendorf tubes • 2. Beaker—100 mL • 3. Micro-pipette Reagents: • 1. Surfactant Solution • 2. De-mineralized (DM) Water Procedure: • 1. Weigh 10 mg of the compound of the present invention to be tested in an Eppendorf Tube. • 2. Add 200 mg of the Surfactant Solution into the tube. • 3. Fix the tube in Eppendorf Vortex mixer and start vortexing at 2000 rpm. • 4. Mix on Vortex mixer for 30 min. After 30 min, observe the sample over a microscope at 400× resolution. • 5. Add 1.0 mL DM water into the tube, close the cap, shake the tube thoroughly and transfer the contents, along with the beads, into a beaker. • 6. To rinse the tube, add another 1.0 mL of DM water into the tube, close the cap, shake well and transfer this into the same beaker. • 7. Repeat […] one more time so that the tube is rinsed well and all the compound of the present invention is transferred to the beaker. • 8. Add 16.8 mL of DM water into the beaker and stir well. • 9. Immediately use this sample for biological testing. • 10. Further dilutions can be prepared by taking appropriate quantity of the aliquot of Step 8, immediately after stirring, and diluting as per requirement. The sample solution must be well mixed just before biological testing.
Leaf dip method was used for screening, wherein the required quantity of the compounds were weighed and dissolved in the test solution into the tube and vortex at 2000 rpm with Zirconia beads for 90 min and for proper mixing, then mixed with 0.01% Triton-X solution to get the desired test concentration. Capsicum leaves were dipped in the solution for 10 seconds, shade dried for 20 min and then leaves were kept in glass units with petiole dipped in water. Known numbers of third instar nymphs were released and were kept in the plant growth chamber at a temperature of 25° C. and Relative Humidity of 70%. Observations on dead, moribund and live nymphs were recorded at 72 h after the release. Percent mortality was calculated by combining dead and moribund nymphs. The following compound numbers

The test system of a further experiment is Plutella xylostella. As to the kind of experiment: whole plant or invertebrate. The following applies: in Brassica oleracea, foliar, second instar larvae, 72 h after release, dead and moribund combined, read-out: percent mortality. On the procedure: as §1, §2
Leaf dip method was used for screening, wherein the required quantity of the compounds were weighed and dissolved in the test solution into the tube and vortex at 2000 rpm with Zirconia beads for 90 min for proper mixing, then mixed with 0.01% Triton-X solution to get the desired test concentration. and Cabbage leaves were dipped in the solution for 10 seconds, shade dried for 20 min and then transferred to bioassay trays. Single second instar larvae were released into each cell and the tray was covered with lid. The bio-assay trays were kept under laboratory conditions at a temperature of 25° C. and Relative Humidity of 70%. Observations on dead, moribund and live larvae were recorded at 72 h after the release. Percent mortality was calculated by combining dead and moribund larvae. The following compound numbers

A further experiment has as its system Helicoverpa armigera. The experiment in a line: Example A: Helicoverpa armigera, diet incorporation method. The following applies: third instar larvae, 96 h after release, dead and moribund combined, read-out: percent mortality. The method, then:
as §1, §2
(§3) Diet incorporation method was used, in which the semi-synthetic diet was incorporated into the test solution when the temperature is approximately 50° C. in the bioassay containers and stirred thoroughly for properly mixing and then was allowed to cool for 30 min. The solidified diet was cut into equal pieces, and then each piece was transferred in one cell in Bio-assay trays. A single third instar starved larva was released into each of these cells of bioassay trays and the tray was covered with the lid. The bio-assay trays were kept under laboratory conditions at a temperature of 25° C. and Relative Humidity of 70%. Observations on dead, moribund and live larvae were recorded at 96 h after the release of larvae. Percent mortality was calculated by combining dead and moribund larvae. The following compound numbers

The test system of the next experiment is Spodoptera litura. The experiment in a line: Example B: Spodoptera litura, diet incorporation method. The following applies: third instar larvae, 96 h after release, dead and moribund combined, read-out: percent mortality. On the procedure: as §1, §2
as §3, with “which” for “which the”, “solutions” for “solution”

What is called mortality is the percentage killed. As for `CC(C)(C)NC(=O)c1cc(Cl)cc(Br)c1NC(=O)c1cc(OC2CSC2)nn1-c1ncccc1Cl` [Compound 45, N-(2-bromo-6-(tert-butylcarbamoyl)-4-chlorophenyl)-1-(3-chloropyridin-2-yl)-3-(thietan-3-yloxy)-1H-pyrazole-5-carboxamide], the mortality at 300 ppm with Myzus persicae is more than 50%.

Consider `Cc1cc2ccnn2c(C(=O)NCC2CC2)c1NC(=O)c1cc(N2CC(F)(F)C2)nn1-c1ncccc1Cl` [Compound 78, 6-(1-(3-chloropyridin-2-yl)-3-(3,3-difluoroazetidin-1-yl)-1H-pyrazole-5-carboxamido)-N-(cyclopropylmethyl)-5-methylpyrazolo[1,5-a]pyridine-7-carboxamide], for which the mortality at 300 ppm with Plutella xylostella, in the experiment on Helicoverpa armigera and in the experiment with Spodoptera litura was more than 70% throughout.

With `CNC(=O)c1c(NC(=O)c2cc(N3CC(F)(F)C3)nn2-c2ncccc2Cl)c(C)cc2ccnn12` [Compound 79, 6-(1-(3-chloropyridin-2-yl)-3-(3,3-difluoroazetidin-1-yl)-1H-pyrazole-5-carboxamido)-N,5-dimethylpyrazolo[1,5-a]pyridine-7-carboxamide], the mortality at 300 ppm in the experiment on Plutella xylostella, with Helicoverpa armigera and in the experiment on Spodoptera litura was more than 70% each time.

Take `Cc1cc2ccnn2c(C(=O)NCC2CC2)c1NC(=O)c1cc(OC2CSC2)nn1-c1ncccc1Cl` [Compound 80, 6-(1-(3-chloropyridin-2-yl)-3-(thietan-3-yloxy)-1H-pyrazole-5-carboxamido)-N-(cyclopropylmethyl)-5-methylpyrazolo[1,5-a]pyridine-7-carboxamide]: the mortality at 300 ppm in the experiment with Plutella xylostella, in the experiment with Helicoverpa armigera and in the experiment with Spodoptera litura was more than 70% in each case.

Consider `CCNC(=O)c1c(NC(=O)c2cc(N3CC(F)(F)C3)nn2-c2ncccc2Cl)c(C)cc2ccnn12` [Compound 84, 6-(1-(3-chloropyridin-2-yl)-3-(3,3-difluoroazetidin-1-yl)-1H-pyrazole-5-carboxamido)-N-ethyl-5-methylpyrazolo[1,5-a]pyridine-7-carboxamide], for which, in the experiment on Spodoptera litura, the mortality at 300 ppm is more than 70%.

Consider `CONC(=O)c1c(NC(=O)c2cc(N3CC(F)(F)C3)nn2-c2ncccc2Cl)c(C)cc2ccnn12` [Compound 85, 6-(1-(3-chloropyridin-2-yl)-3-(3,3-difluoroazetidin-1-yl)-1H-pyrazole-5-carboxamido)-N-methoxy-5-methylpyrazolo[1,5-a]pyridine-7-carboxamide], for which the mortality at 300 ppm with Plutella xylostella and in the experiment with Helicoverpa armigera was more than 70% in each case.

As for `C=CCNC(=O)c1c(NC(=O)c2cc(N3CC(F)(F)C3)nn2-c2ncccc2Cl)c(C)cc2ccnn12` [Compound 87, N-allyl-6-(1-(3-chloropyridin-2-yl)-3-(3,3-difluoroazetidin-1-yl)-1H-pyrazole-5-carboxamido)-5-methylpyrazolo[1,5-a]pyridine-7-carboxamide], in the experiment on Spodoptera litura, the mortality at 300 ppm was more than 70%.

As to `CONC(=O)c1cc(Cl)cc(Br)c1NC(=O)c1cc(OC2CSC2)nn1-c1ncccc1Cl` [Compound 91, N-(2-bromo-4-chloro-6-(methoxycarbamoyl)phenyl)-1-(3-chloropyridin-2-yl)-3-(thietan-3-yloxy)-1H-pyrazole-5-carboxamide], in the experiment with Myzus persicae, the mortality at 300 ppm is more than 50%.

Regarding `C=CCNC(=O)c1cc(Cl)cc(Br)c1NC(=O)c1cc(OC2CSC2)nn1-c1ncccc1Cl` [Compound 92, N-(2-(allylcarbamoyl)-6-bromo-4-chlorophenyl)-1-(3-chloropyridin-2-yl)-3-(thietan-3-yloxy)-1H-pyrazole-5-carboxamide], the mortality at 300 ppm in the experiment with Myzus persicae is more than 50%.

Consider `C=CCNC(=O)c1cc(Cl)cc(C)c1NC(=O)c1cc(OC2CSC2)nn1-c1ncccc1Cl` [Compound 98, N-(2-(allylcarbamoyl)-4-chloro-6-methylphenyl)-1-(3-chloropyridin-2-yl)-3-(thietan-3-yloxy)-1H-pyrazole-5-carboxamide], for which the mortality at 300 ppm with Myzus persicae was more than 50%.

With `CCCNC(=O)c1c(NC(=O)c2cc(OC3CSC3)nn2-c2ncccc2Cl)c(C)cc2ccnn12` [Compound 108, 6-(1-(3-chloropyridin-2-yl)-3-(thietan-3-yloxy)-1H-pyrazole-5-carboxamido)-5-methyl-N-propylpyrazolo[1,5-a]pyridine-7-carboxamide], in the experiment on Plutella xylostella, the mortality at 300 ppm was more than 70%.

As to `Cc1cc(Cl)cc(C(=O)NC(C)C)c1NC(=O)c1cc(OC2C[S+]([O-])C2)nn1-c1ncccc1Cl` (stereo not drawn) [Compound 117, N-(4-chloro-2-(isopropylcarbamoyl)-6-methylphenyl)-1-(3-chloropyridin-2-yl)-3-((1-oxidothietan-3-yl)oxy)-1H-pyrazole-5-carboxamide], in the experiment on Myzus persicae, the mortality at 300 ppm was more than 50%.

For `Cc1cc(Cl)cc(C(=O)NC2CC2)c1NC(=O)c1cc(OC2C[S+]([O-])C2)nn1-c1ncccc1Cl` (stereo not drawn) [Compound 128, N-(4-chloro-2-(cyclopropylcarbamoyl)-6-methylphenyl)-1-(3-chloropyridin-2-yl)-3-((1-oxidothietan-3-yl)oxy)-1H-pyrazole-5-carboxamide], the mortality at 300 ppm in the experiment on Myzus persicae is more than 50%.

Turning to `Cc1cc(Cl)cc(C(=O)NCC2CC2)c1NC(=O)c1cc(OC2C[S+]([O-])C2)nn1-c1ncccc1Cl` (stereo not drawn) [Compound 129, N-(4-chloro-2-((cyclopropylmethyl)carbamoyl)-6-methylphenyl)-1-(3-chloropyridin-2-yl)-3-((1-oxidothietan-3-yl)oxy)-1H-pyrazole-5-carboxamide], the mortality at 300 ppm with Myzus persicae is more than 50%.

With `O=C(NCC(F)(F)F)c1cc(Cl)cc(Cl)c1NC(=O)c1cc(OC2CSC2)nn1-c1ncccc1Cl` [Compound 132, 1-(3-chloropyridin-2-yl)-N-(2,4-dichloro-6-((2,2,2-trifluoroethyl)carbamoyl)phenyl)-3-(thietan-3-yloxy)-1H-pyrazole-5-carboxamide], in the experiment with Myzus persicae, the mortality at 300 ppm was more than 50%.

On to `CCNC(=O)c1c(NC(=O)c2cc(OC3CSC3)nn2-c2ncccc2Cl)c(C)cc2ccnn12` [Compound 137, 6-(1-(3-chloropyridin-2-yl)-3-(thietan-3-yloxy)-1H-pyrazole-5-carboxamido)-N-ethyl-5-methylpyrazolo[1,5-a]pyridine-7-carboxamide], for which the mortality at 300 ppm with Plutella xylostella was more than 70%.

For `Cc1cc2ccnn2c(C(=O)NC2CC2)c1NC(=O)c1cc(OC2CSC2)nn1-c1ncccc1Cl` [Compound 138, 6-(1-(3-chloropyridin-2-yl)-3-(thietan-3-yloxy)-1H-pyrazole-5-carboxamido)-N-cyclopropyl-5-methylpyrazolo[1,5-a]pyridine-7-carboxamide], in the experiment on Spodoptera litura, the mortality at 300 ppm was more than 70%.

Take `Cc1cc2ccnn2c(C(=O)NC(C)C2CC2)c1NC(=O)c1cc(OC2CSC2)nn1-c1ncccc1Cl` (stereo not drawn) [Compound 139, 6-(1-(3-chloropyridin-2-yl)-3-(thietan-3-yloxy)-1H-pyrazole-5-carboxamido)-N-(1-cyclopropylethyl)-5-methylpyrazolo[1,5-a]pyridine-7-carboxamide]: the mortality at 300 ppm in the experiment with Helicoverpa armigera and in the experiment on Spodoptera litura was more than 70% in each case.

In the case of `COCCNC(=O)c1c(NC(=O)c2cc(OC3CSC3)nn2-c2ncccc2Cl)c(C)cc2ccnn12` [Compound 156, 6-(1-(3-chloropyridin-2-yl)-3-(thietan-3-yloxy)-1H-pyrazole-5-carboxamido)-N-(2-methoxyethyl)-5-methylpyrazolo[1,5-a]pyridine-7-carboxamide], the mortality at 300 ppm in the experiment on Helicoverpa armigera was more than 70%.
